Data reported in patent US20240082222A1, “4-CHLORO-N-[2-[(4-CHLOROPHENYL)METHYL]-3-OXO-1,2,4-THIADIAZOL-5-YL]BENZAMIDE FOR USE IN MEDICINE” (Betagenon AB, priority 2021, published 2024).
“And” between values parts separate entries of the source, which are not always exact repeats. Identical values can stand only once. Counter-ions that a name gives are not always drawn.

Assay: Pharmacokinetic study in humans, sodium salt in enteric capsules, single and multiple dose (Example 2)
Assay type: in vivo, human
Experimental: An open, randomised, parallel-group study in healthy volunteers (hereafter referred to as subjects) was conducted to evaluate the exposure of 4-chloro-N-[2-[(4-chlorophenyl)methyl]-3-oxo-1,2,4-thiadiazol-5-yl]benzamide after single and multiple dose administration of 3 dose levels of the sodium salt of 4-chloro-N-[2-[(4-chlorophenyl)methyl]-3-oxo-1,2,4-thiadiazol-5-yl]benzamide and to evaluate combination with dapagliflozin at steady state.
For the study, Vcaps enteric capsules, size 0, were individually filled with 200 mg of milled test material together with 2 mg of sodium docusate, 125 mg of mannitol and 6.5 mg of sodium lauryl sulfate. […]
A screening visit (Visit 1) was performed within 28 days before randomisation and the start of IMP administration. The subjects were confined to the research clinic from the evening before Day 1 (Visit 2; Day—1). […]
Pre-dose safety assessments as well as pre- and post-dose PK assessments were performed. The subjects left the clinic after the last PK-sample on Day 1 and returned for a 24 h PK sample and dosing on Day 2 (Visit 3).
Subjects self-administered the test material at home from Day 3 to Day 15. A telephone visit to check compliance, AE status and use of concomitant medications will be performed on Day 8 (Visit 4).
The subjects returned to the clinic on Days 16 and 17 (Visits 5 and 6), for PK sampling and AE assessment. Visit 6 continued in the evening of Day 17, when the subjects were confined to the clinic until Day 18. On Day 18, pre- and post-dose PK and safety assessments were performed. The subjects left the clinic after the last PK sample on Day 18 and returned for a 24 h PK sample and dosing on Day 19 (Visit 7).
On Day 19 (Visit 7) subjects began co-administration of the test material and dapagliflozin (Forxiga), 10 mg per day for 7 days (Day 19 to Day 25). The subjects returned to the clinic on Day 25 (Visit 8) for final dosing, PK and safety assessments. A final end-of-study visit (Visit 9) for follow-up of safety assessments was conducted 28 days (+14 days) after Visit 8 or after early withdrawal.
Venous blood samples (approximately 5 mL) for the determination of plasma concentrations of 4-chloro-N-[2-[(4-chlorophenyl)methyl]-3-oxo-1,2,4-thiadiazol-5-yl]benzamide after administration of the test material were collected through an indwelling venous catheter on Days 1, 2, 16 to 19 and 25.
The blood samples were collected in pre-labelled Li-Heparin tubes. All the collected blood samples were be centrifuged at 1500 G for 10 minutes to separate plasma within 60 minutes from the sample is drawn. The separated plasma from each blood sample was be divided into 2 aliquots in pre-labelled polypropylene cryotubes (A and B samples, approximately 750 μL in each tube) and frozen at <−70° C. On Day 25, the plasma was divided in to 3 aliquots of at least 500 μL (A and B samples for the test material, and 1 sample for potential future analysis of dapagliflozin).
Samples for determination of plasma concentrations of 4-chloro-N[2-[(4-chlorophenyl)methyl]-3-oxo-1,2,4-thiadiazol-5-yl]benzamide were analysed by Lablytica Life Science AB, Uppsala, Sweden by means of a validated LS-MS/MS method.
The data of plasma concentration to respective time points for the analyte (4-chloro-N-[2-[(4-chlorophenyl)methyl]-3-oxo-1,2,4-thiadiazol-5-yl]benzamide) were used for the pharmacokinetic analysis. Pharmacokinetic analysis was performed using non-compartmental analysis (NCA) module of Phoenix WinNonlin 8.1 software to determine the following pharmacokinetic parameters.
After single dose administration of test material: • AUC0-24, Cmax, Tmax and dose proportionality (based on AUC0-24 and Cmax) (secondary endpoints). […]

[1] = 400 mg Dose Group, capsules once daily, Day 18, Geometric Mean
[2] = 400 mg Dose Group, capsules once daily, Day 18, Mean
[3] = 400 mg Dose Group, capsules once daily, Day 18, Median
[4] = 400 mg Dose Group, capsules once daily, Day 18, individual subjects, listed as test material
[5] = 800 mg Dose Group, capsules once daily, Day 18, Geometric Mean
[6] = 800 mg Dose Group, capsules once daily, Day 18, Mean
[7] = 800 mg Dose Group, capsules once daily, Day 18, Median
[8] = 800 mg Dose Group, capsules once daily, Day 18, individual subjects, listed as test material
[9] = 2000 mg Dose Group, capsule once daily, Day 18, Geometric Mean
[10] = 2000 mg Dose Group, capsule once daily, Day 18, Mean
[11] = 2000 mg Dose Group, capsule once daily, Day 18, Median
[12] = 2000 mg Dose Group, capsule once daily, Day 18, individual subjects, listed as test material
[13] = capsule once daily, Day 18, individual subjects, listed as test material
[14] = dose-normalised, 400 mg Dose Group, capsules once daily, Day 18, Geometric Mean
[15] = dose-normalised, 400 mg Dose Group, capsules once daily, Day 18, Mean
[16] = dose-normalised, 400 mg Dose Group, capsules once daily, Day 18, Median
[17] = dose-normalised, 400 mg Dose Group, capsules once daily, Day 18, individual subjects, listed as test material
[18] = dose-normalised, 800 mg Dose Group, capsules once daily, Day 18, Geometric Mean
[19] = dose-normalised, 800 mg Dose Group, capsules once daily, Day 18, Mean
[20] = dose-normalised, 800 mg Dose Group, capsules once daily, Day 18, Median
[21] = dose-normalised, 800 mg Dose Group, capsules once daily, Day 18, individual subjects, listed as test material
[22] = dose-normalised, 2000 mg Dose Group, capsule once daily, Day 18, Geometric Mean

O=C(Nc1nc(=O)n(Cc2ccc(Cl)cc2)s1)c1ccc(Cl)cc1 [Compound of formula II, sodium salt of 4-chloro-N-[2-[(4-chlorophenyl)methyl]-3-oxo-1,2,4-thiadiazol-5-yl]benzamide]
increase in systemic exposure compared to a standard suspension of the active ingredient (200 mg of the sodium salt): up to five-fold
CLss_F [1]: 267.1 mL/h
Clast [1]: 62.75 µg/mL
Tlast [1]: 23.93 h
CLss_F [2]: 271.8 mL/h
Clast [2]: 64.03 µg/mL
Tlast [2]: 23.93 h
CLss_F [3]: 286.3 mL/h
Clast [3]: 60.9 µg/mL
Tlast [3]: 23.93 h
AUC_TAU [4]: 1300 µg·h/mL and 1750 µg·h/mL and 1480 µg·h/mL and 1320 µg·h/mL and 2100 µg·h/mL
AUClast [4]: 1290 µg·h/mL and 1740 µg·h/mL and 1480 µg·h/mL and 1320 µg·h/mL and 2090 µg·h/mL and 1650 µg·h/mL
CLss_F [4]: 330 mL/h and 308 mL/h and 229 mL/h and 270 mL/h and 303 mL/h and 191 mL/h
Clast [4]: 54.7 µg/mL and 50.4 µg/mL and 73.2 µg/mL and 60.9 µg/mL and 49.2 µg/mL and 86.9 µg/mL and 72.9 µg/mL
Tlast [4]: 23.9 h (6×) and 24 h
Tmax [4]: 12 h and 2 h and 3 h and 0.25 h and 23.9 h
CLss_F [5]: 316.5 mL/h
Tlast [5]: 23.92 h
CLss_F [6]: 321.8 mL/h
Tlast [6]: 23.92 h
CLss_F [7]: 292.8 mL/h
Tlast [7]: 23.92 h
Tlast (800 mg Dose Group, capsules once daily, Day 18, individual subjects): 23.9 h
AUC_TAU [8]: 2500 µg·h/mL and 2910 µg·h/mL and 2730 µg·h/mL and 2870 µg·h/mL
AUClast [8]: 2490 µg·h/mL and 2900 µg·h/mL and 2620 µg·h/mL and 2980 µg·h/mL and 2720 µg·h/mL and 2580 µg·h/mL and 2860 µg·h/mL
CLss_F [8]: 442 mL/h and 321 mL/h and 275 mL/h and 293 mL/h and 279 mL/h
Clast [8]: 98 μg/ml and 120 μg/ml and 115 μg/ml (2×) and 127 μg/ml and 110 μg/ml and 117 μg/ml
Cmax [8]: 118 µg/mL and 127 µg/mL and 115 µg/mL and 130 µg/mL and 126 µg/mL and 117 µg/mL and 128 µg/mL
Tmax [8]: 9.98 h and 0 h and 23.9 h and 10 h and 6 h
CLss_F [9]: 202.7 mL/h
Clast [9]: 42.19 µg/mL
Tlast [9]: 23.92 h
CLss_F [10]: 207.9 mL/h
Tlast [10]: 23.92 h
CLss_F [11]: 210.5 mL/h
Clast [11]: 38.7 µg/mL
Tlast [11]: 23.92 h
AUC_TAU [12]: 1130 µg·h/mL and 841 µg·h/mL and 1600 µg·h/mL and 802 µg·h/mL and 950 µg·h/mL and 774 µg·h/mL and 1010 µg·h/mL
CLss_F [12]: 176 mL/h and 238 mL/h and 125 mL/h and 249 mL/h and 210 mL/h and 259 mL/h and 198 mL/h
Tmax [12]: 0.267 h and 23.9 h and 0 h and 10 h and 12 h
Tlast (capsule once daily, Day 18, individual subjects): 23.9 h
AUClast [13]: 1130 µg·h/mL and 1400 µg·h/mL and 838 µg·h/mL and 1600 µg·h/mL and 800 µg·h/mL and 947 µg·h/mL and 772 µg·h/mL and 1010 µg·h/mL
Clast [13]: 47 µg/mL and 62 µg/mL and 33.5 µg/mL and 68 µg/mL and 33.3 µg/mL and 36.7 µg/mL and 30.4 µg/mL and 40.7 µg/mL
Cmax [13]: 52.1 µg/mL and 62 µg/mL and 42 µg/mL and 71.9 µg/mL and 40.2 µg/mL and 46.2 µg/mL and 34.6 µg/mL and 49.9 µg/mL
accumulation in the blood plasma after repeat dosing (capsules, 200-800 mg once daily): substantial accumulation
AUC_TAU_D [14]: 3.744 µg·h/mL/mg
AUClast_D [14]: 3.788 µg·h/mL/mg
Cmax_D [14]: 0.1741 µg/mL/mg
AUC_TAU_D [15]: 3.816 µg·h/mL/mg
AUClast_D [15]: 3.852 µg·h/mL/mg
Cmax_D [15]: 0.1769 µg/mL/mg
AUC_TAU_D [16]: 3.504 µg·h/mL/mg
AUClast_D [16]: 3.703 µg·h/mL/mg
Cmax_D [16]: 0.1653 µg/mL/mg
AUC_TAU_D [17]: 3.03 µg·h/mL/mg and 3.24 µg·h/mL/mg and 4.37 µg·h/mL/mg and 3.71 µg·h/mL/mg and 3.3 µg·h/mL/mg and 5.24 µg·h/mL/mg
AUClast_D [17]: 3.02 µg·h/mL/mg and 3.23 µg·h/mL/mg and 4.36 µg·h/mL/mg and 3.7 µg·h/mL/mg and 3.29 µg·h/mL/mg and 5.23 µg·h/mL/mg and 4.13 µg·h/mL/mg
Cmax_D [17]: 0.141 µg/mL/mg and 0.15 µg/mL/mg and 0.193 µg/mL/mg and 0.165 µg/mL/mg and 0.161 µg/mL/mg and 0.248 µg/mL/mg and 0.182 µg/mL/mg
AUC_TAU_D [18]: 3.159 µg·h/mL/mg
AUClast_D [18]: 3.24 µg·h/mL/mg
Cmax_D [18]: 0.1472 µg/mL/mg
AUC_TAU_D [19]: 3.205 µg·h/mL/mg
AUClast_D [19]: 3.274 µg·h/mL/mg
Cmax_D [19]: 0.1482 µg/mL/mg
AUC_TAU_D [20]: 3.416 µg·h/mL/mg
AUClast_D [20]: 3.337 µg·h/mL/mg
Cmax_D [20]: 0.1525 µg/mL/mg
AUC_TAU_D [21]: 2.26 µg·h/mL/mg and 3.12 µg·h/mL/mg and 3.64 µg·h/mL/mg and 3.27 µg·h/mL/mg and 3.42 µg·h/mL/mg and 3.59 µg·h/mL/mg
AUClast_D [21]: 2.25 µg·h/mL/mg and 3.11 µg·h/mL/mg and 3.63 µg·h/mL/mg and 144 µg·h/mL/mg and 3.73 µg·h/mL/mg and 3.4 µg·h/mL/mg and 3.22 µg·h/mL/mg and 3.58 µg·h/mL/mg
Cmax_D [21]: 0.109 µg/mL/mg and 0.148 µg/mL/mg and 0.159 µg/mL/mg and 0 µg/mL/mg and 0.163 µg/mL/mg and 0.158 µg/mL/mg and 0.146 µg/mL/mg and 0.16 µg/mL/mg
AUC_TAU_D [22]: 4.934 µg·h/mL/mg
AUClast_D [22]: 5.139 µg·h/mL/mg
Cmax D [22]: 0.2432 µg/mL/mg
AUC_TAU_D (dose-normalised, 2000 mg Dose Group, capsule once daily, Day 18, Mean): 5.082 µg·h/mL/mg
